Test results taken from patent publication US10023566B2, “Dasatinib salts” (EGIS GYOGYSZERGYAR ZRT, priority 2014, dated 2018).
Where a name gives a salt, the structure may show the parent alone.

What was measured:
Format in all cases: physicochemical
[1] = Water adsorption, DVS (dynamic vapor sorption) analysis; settings: after drying
Source text: As it is disclosed in WO2007/035874 paragraph [0096] dasatinib mono HCl includes a cavity or channel, which may be partially or fully occupied by solvent or a mixture of solvent. […] Further salts disclosed in the prior art also contain solvent adsorbed on the surface or in the form of solvate. These forms are nor suitable for pharmaceutical application. […] Therefore we carried out our comparative experiments between dasatinib base monohydrate and the new salts of the present invention.

[2] = Storage stability test: quantity of impurities by HPLC and change thereof; settings: for stability in the storage tests (in words): storage tests carried out under various conditions, thermal stress and forced stability tests
Source text: In course of the thermal stress test and the forced stability test the decompositions in a pharmaceutical composition occurring during storage are constructed essentially in an accelerated manner. […] The advantageous properties of the new dasatinib salts of the present invention are significant from the point of view of the formulation of pharmaceutical compositions, the storage and the minimization of the harmful effects exerted in the human body.
The stability of the new dasatinib salts of the present invention were subjected to detailed tests.
Our results regarding the quantity of the impurities and change thereof are shown in the tables below (expressed in percentage).
Measuring conditions are the same as the determination of purity profile below.
Determination of the Impurities of Dasatinib Salts by HPLC (Measurement Conditions)

[3] = Determination of the solubility of dasatinib salts (shake flask 37° C., HPLC); settings: 6 hour shaking, 18 hour sedimentation
Description: Considering the above mentioned facts our solubility measurements were carried out on three different pH values (pH 1, pH 4.5 and pH 6.8).
Determination of the Solubility of Dasatinib Salts (Measurement Conditions)
Preparation of Sample Mixture:
• 100 mg of dasatinib salt are weighed in a 20 ml Erlenmeyer flask whereupon 10 ml of medium are added and it is shaked for 6 hours at a temperature of 37° C. on 100 rpm. After sedimentation for 18 hours at a temperature of 37° C. the settled solution is filtered through a sieve with 0.45 μm pores and the solution is diluted up to 20 ml with medium.

[4] = 3 week, 40° C./70% RH, listed as Anhydrous dasatinib p-toluenesulfonic acid (1:1) salt Form I

Cc1nc(Nc2ncc(C(=O)Nc3c(C)cccc3Cl)s2)cc(N2CCN(CCO)CC2)n1 [dasatinib diHCl salt, N-(2-Chloro-6-methylphenyl)-2-[6-[4-(2-hydroxyethyl)piperazin-1-yl]-2-methylpyrimidin-4-ylamino]-1,3-thiazole-5-carboxamide]
water adsorption property (in words) [1]: tends to adsorb water

Cc1nc(Nc2ncc(C(=O)Nc3c(C)cccc3Cl)s2)cc(N2CCN(CCO)CC2)n1 [dasatinib cyclamic acid (1:1) salt Form I] [N-(2-Chloro-6-methylphenyl)-2-[6-[4-(2-hydroxyethyl)piperazin-1-yl]-2-methylpyrimidin-4-ylamino]-1,3-thiazole-5-carboxamide]
Impurity Dasatinib N-oxyde (RT 12.2-12.4) ([2]; 3 week, 25° C./90% RH): 0.03%
Impurity Deshydroxyethyl dasatinib (RT 11.0) ([2]; 3 week, 25° C./90% RH): 0.03%
Impurity Ethylene-diamine intermedier (RT 9.0-9.3) ([2]; 3 week, 25° C./90% RH): 0.02%
Impurity Summary (%) ([2]; 3 week, 25° C./90% RH): 0.11%
Impurity, unnamed, RT 15.5 ([2]; 3 week, 25° C./90% RH): 0.03%
Impurity Dasatinib N-oxyde (RT 12.2-12.4) ([2]; 3 week, 40° C./70% RH): 0.03%
Impurity Deshydroxyethyl dasatinib (RT 11.0) ([2]; 3 week, 40° C./70% RH): 0.03%
Impurity Summary (%) ([2]; 3 week, 40° C./70% RH): 0.09%
Impurity, unnamed, RT 15.5 ([2]; 3 week, 40° C./70% RH): 0.03%
Impurity Dasatinib N-oxyde (RT 12.2-12.4) ([2]; 6 week, 25° C./90% RH): 0.03%
Impurity Deshydroxyethyl dasatinib (RT 11.0) ([2]; 6 week, 25° C./90% RH): 0.03%
Impurity Summary (%) ([2]; 6 week, 25° C./90% RH): 0.06%
Impurity Dasatinib N-oxyde (RT 12.2-12.4) ([2]; 6 week, 40° C./70% RH): 0.03%
Impurity Deshydroxyethyl dasatinib (RT 11.0) ([2]; 6 week, 40° C./70% RH): 0.03%
Impurity Summary (%) ([2]; 6 week, 40° C./70% RH): 0.06%
Impurity Dasatinib N-oxyde (RT 12.2-12.4) ([2]; starting sample): 0.03%
Impurity Deshydroxyethyl dasatinib (RT 11.0) ([2]; starting sample): 0.03%
Impurity Summary (%) ([2]; starting sample): 0.09%
Impurity, unnamed, RT 15.5 ([2]; starting sample): 0.03%
stability in the storage tests (in words) [2]: particularly stable
solubility ([3]; 0.1M HCl (pH 1)): 8533 µg/mL
solubility ([3]; pH = 4.5 phosphate buffer): 6194 µg/mL
solubility ([3]; pH = 6.8 phosphate buffer): 5 µg/mL

Cc1nc(Nc2ncc(C(=O)Nc3c(C)cccc3Cl)s2)cc(N2CCN(CCO)CC2)n1 [dasatinib tosilate (1:1) Form I anhydrate] [N-(2-Chloro-6-methylphenyl)-2-[6-[4-(2-hydroxyethyl)piperazin-1-yl]-2-methylpyrimidin-4-ylamino]-1,3-thiazole-5-carboxamide]
Impurity, unnamed, RT 15.5 ([2]; 3 week, 25° C./90% RH): 0.03%
Impurity Summary (%) ([2]; 3 week, 25° C./90% RH, listed as Anhydrous dasatinib p-toluenesulfonic acid (1:1) salt Form I): 0.03%
Impurity Ethylene-diamine intermedier (RT 9.0-9.3) [2, 4]: 0.03%
Impurity Summary (%) [2, 4]: 0.03%
Impurity, unnamed, RT 15.5 ([2]; starting sample): 0.03%
Impurity Summary (%) ([2]; starting sample, listed as Anhydrous dasatinib p-toluenesulfonic acid (1:1) salt Form I): 0.03%
stability in the storage tests (in words) ([2]; listed as anhydrous dasatinib p-toluenesulfonic acid (1:1) salt Form I): particularly stable
solubility ([3]; 0.1M HCl (pH 1)): 5365 µg/mL
solubility ([3]; pH = 4.5 phosphate buffer): 4510 µg/mL

Cc1nc(Nc2ncc(C(=O)Nc3c(C)cccc3Cl)s2)cc(N2CCN(CCO)CC2)n1 [dasatinib mono HCl salt, N-(2-Chloro-6-methylphenyl)-2-[6-[4-(2-hydroxyethyl)piperazin-1-yl]-2-methylpyrimidin-4-ylamino]-1,3-thiazole-5-carboxamide]
water adsorption property (in words) [1]: changeable, especially after drying

Cc1nc(Nc2ncc(C(=O)Nc3c(C)cccc3Cl)s2)cc(N2CCN(CCO)CC2)n1 [dasatinib tosilate (1:1) Form II anhydrate] [N-(2-Chloro-6-methylphenyl)-2-[6-[4-(2-hydroxyethyl)piperazin-1-yl]-2-methylpyrimidin-4-ylamino]-1,3-thiazole-5-carboxamide]
solubility ([3]; 0.1M HCl (pH 1)): 5702 µg/mL
solubility ([3]; pH = 4.5 phosphate buffer): 2805 µg/mL
solubility ([3]; pH = 6.8 phosphate buffer): 11 µg/mL

Cc1nc(Nc2ncc(C(=O)Nc3c(C)cccc3Cl)s2)cc(N2CCN(CCO)CC2)n1 [Dasatinib monohydrate, N-(2-Chloro-6-methylphenyl)-2-[6-[4-(2-hydroxyethyl)piperazin-1-yl]-2-methylpyrimidin-4-ylamino]-1,3-thiazole-5-carboxamide, reference compound]
Impurity Dasatinib N-oxyde (RT 12.2-12.4) ([2]; 3 week, 25° C./90% RH): 0.03%
Impurity Dasatinib imp 2 (RT 5.2) ([2]; 3 week, 25° C./90% RH): 0.11%
Impurity Dasatinib imp 3 (RT 18.9) ([2]; 3 week, 25° C./90% RH): 0.04%
Impurity Deshydroxyethyl dasatinib (RT 11.0) ([2]; 3 week, 25° C./90% RH): 0.12%
Impurity Ethylene-diamine intermedier (RT 9.0-9.3) ([2]; 3 week, 25° C./90% RH): 0.06%
Impurity Summary (%) ([2]; 3 week, 25° C./90% RH): 0.43%
Impurity, unnamed, RT 20.3 ([2]; 3 week, 25° C./90% RH): 0.07%
Impurity Dasatinib N-oxyde (RT 12.2-12.4) ([2]; 3 week, 40° C./70% RH): 0.03%
Impurity Dasatinib imp 2 (RT 5.2) ([2]; 3 week, 40° C./70% RH): 0.10%
Impurity Dasatinib imp 3 (RT 18.9) ([2]; 3 week, 40° C./70% RH): 0.03%
Impurity Deshydroxyethyl dasatinib (RT 11.0) ([2]; 3 week, 40° C./70% RH): 0.12%
Impurity Ethylene-diamine intermedier (RT 9.0-9.3) ([2]; 3 week, 40° C./70% RH): 0.08%
Impurity Summary (%) ([2]; 3 week, 40° C./70% RH): 0.43%
Impurity, unnamed, RT 20.3 ([2]; 3 week, 40° C./70% RH): 0.07%
Impurity Dasatinib imp 2 (RT 5.2) ([2]; 6 week, 25° C./90% RH): 0.10%
Impurity Dasatinib imp 3 (RT 18.9) ([2]; 6 week, 25° C./90% RH): 0.04%
Impurity Deshydroxyethyl dasatinib (RT 11.0) ([2]; 6 week, 25° C./90% RH): 0.12%
Impurity Ethylene-diamine intermedier (RT 9.0-9.3) ([2]; 6 week, 25° C./90% RH): 0.03%
Impurity Summary (%) ([2]; 6 week, 25° C./90% RH): 0.39%
Impurity, unnamed, RT 19.6 ([2]; 6 week, 25° C./90% RH): 0.02%
Impurity, unnamed, RT 20.3 ([2]; 6 week, 25° C./90% RH): 0.08%
Impurity Dasatinib N-oxyde (RT 12.2-12.4) ([2]; 6 week, 40° C./70% RH): 0.02%
Impurity Dasatinib imp 2 (RT 5.2) ([2]; 6 week, 40° C./70% RH): 0.11%
Impurity Dasatinib imp 3 (RT 18.9) ([2]; 6 week, 40° C./70% RH): 0.04%
Impurity Deshydroxyethyl dasatinib (RT 11.0) ([2]; 6 week, 40° C./70% RH): 0.12%
Impurity Ethylene-diamine intermedier (RT 9.0-9.3) ([2]; 6 week, 40° C./70% RH): 0.03%
Impurity Summary (%) ([2]; 6 week, 40° C./70% RH): 0.41%
Impurity, unnamed, RT 19.6 ([2]; 6 week, 40° C./70% RH): 0.02%
Impurity, unnamed, RT 20.3 ([2]; 6 week, 40° C./70% RH): 0.07%
Impurity Dasatinib N-oxyde (RT 12.2-12.4) ([2]; starting sample): 0.02%
Impurity Dasatinib imp 2 (RT 5.2) ([2]; starting sample): 0.11%
Impurity Dasatinib imp 3 (RT 18.9) ([2]; starting sample): 0.04%
Impurity Deshydroxyethyl dasatinib (RT 11.0) ([2]; starting sample): 0.12%
Impurity Ethylene-diamine intermedier (RT 9.0-9.3) ([2]; starting sample): 0.03%
Impurity Summary (%) ([2]; starting sample): 0.38%
Impurity, unnamed, RT 20.3 ([2]; starting sample): 0.08%
stability in the storage tests (in words) ([2]; listed as dasatinib base monohydrate): most stable and suitable form disclosed in the prior art
solubility ([3]; 0.1M HCl (pH 1)): 5757 µg/mL
solubility ([3]; pH = 4.5 phosphate buffer): 555 µg/mL
solubility ([3]; pH = 6.8 phosphate buffer): 156 µg/mL

Cc1nc(Nc2ncc(C(=O)Nc3c(C)cccc3Cl)s2)cc(N2CCN(CCO)CC2)n1 [dasatinib mesilate (1:2), N-(2-Chloro-6-methylphenyl)-2-[6-[4-(2-hydroxyethyl)piperazin-1-yl]-2-methylpyrimidin-4-ylamino]-1,3-thiazole-5-carboxamide]
solubility ([3]; pH = 4.5 phosphate buffer): 805 µg/mL
solubility ([3]; pH = 6.8 phosphate buffer): 17 µg/mL

Cc1nc(Nc2ncc(C(=O)Nc3c(C)cccc3Cl)s2)cc(N2CCN(CCO)CC2)n1 [dasatinib cyclamic acid (1:1) salt Form II] [N-(2-Chloro-6-methylphenyl)-2-[6-[4-(2-hydroxyethyl)piperazin-1-yl]-2-methylpyrimidin-4-ylamino]-1,3-thiazole-5-carboxamide]
Impurity Dasatinib N-oxyde (RT 12.2-12.4) ([2]; 3 week, 25° C./90% RH): 0.04%
Impurity Deshydroxyethyl dasatinib (RT 11.0) ([2]; 3 week, 25° C./90% RH): 0.04%
Impurity Ethylene-diamine intermedier (RT 9.0-9.3) ([2]; 3 week, 25° C./90% RH): 0.03%
Impurity Summary (%) ([2]; 3 week, 25° C./90% RH): 0.11%
Impurity Deshydroxyethyl dasatinib (RT 11.0) ([2]; 3 week, 40° C./70% RH): 0.04%
Impurity Ethylene-diamine intermedier (RT 9.0-9.3) ([2]; 3 week, 40° C./70% RH): 0.03%
Impurity Summary (%) ([2]; 3 week, 40° C./70% RH): 0.07%
Impurity Deshydroxyethyl dasatinib (RT 11.0) ([2]; 6 week, 25° C./90% RH): 0.04%
Impurity Ethylene-diamine intermedier (RT 9.0-9.3) ([2]; 6 week, 25° C./90% RH): 0.03%
Impurity Summary (%) ([2]; 6 week, 25° C./90% RH): 0.07%
Impurity Dasatinib N-oxyde (RT 12.2-12.4) ([2]; 6 week, 40° C./70% RH): 0.03%
Impurity Deshydroxyethyl dasatinib (RT 11.0) ([2]; 6 week, 40° C./70% RH): 0.04%
Impurity Ethylene-diamine intermedier (RT 9.0-9.3) ([2]; 6 week, 40° C./70% RH): 0.02%
Impurity Summary (%) ([2]; 6 week, 40° C./70% RH): 0.09%
Impurity Deshydroxyethyl dasatinib (RT 11.0) ([2]; starting sample): 0.04%
Impurity Ethylene-diamine intermedier (RT 9.0-9.3) ([2]; starting sample): 0.03%
Impurity Summary (%) ([2]; starting sample): 0.07%
stability in the storage tests (in words) [2]: particularly stable
solubility ([3]; 0.1M HCl (pH 1)): 8862 µg/mL
solubility ([3]; pH = 4.5 phosphate buffer): 4544 µg/mL

Cc1nc(Nc2ncc(C(=O)Nc3c(C)cccc3Cl)s2)cc(N2CCN(CCO)CC2)n1 [dasatinib tosilate (1:1) dihydrate, N-(2-Chloro-6-methylphenyl)-2-[6-[4-(2-hydroxyethyl)piperazin-1-yl]-2-methylpyrimidin-4-ylamino]-1,3-thiazole-5-carboxamide]
solubility ([3]; 0.1M HCl (pH 1)): 4898 µg/mL
solubility ([3]; pH = 4.5 phosphate buffer): 1641 µg/mL
solubility ([3]; pH = 6.8 phosphate buffer): 10 µg/mL

Cc1nc(Nc2ncc(C(=O)Nc3c(C)cccc3Cl)s2)cc(N2CCN(CCO)CC2)n1 [dasatinib hydrogen bromide (1:2) salt, N-(2-Chloro-6-methylphenyl)-2-[6-[4-(2-hydroxyethyl)piperazin-1-yl]-2-methylpyrimidin-4-ylamino]-1,3-thiazole-5-carboxamide]
solubility ([3]; 0.1M HCl (pH 1)): 7994 µg/mL
solubility ([3]; pH = 4.5 phosphate buffer): 1056 µg/mL
